Data from PubChem BioAssay (NCI).
Where “and” joins values, the source holds several entries; their conditions need not be identical. Equal entries are not always repeated.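 Following 48 hours of exposure in 96-well plates, responses at five concentrations were used to interpolate endpoints linearly. Abbreviation: GI50, concentration required for 50% inhibition of growth. TGI: total growth inhibition.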

Experiments:
Test in all cases: DTP human tumour cell line panel, 48 h
[1] = tested on: HCT-116 colon
[2] = tested on: HOP-62 NSCLC
[3] = tested on: IGROV1 ovarian
[4] = tested on: NCI-H226 lung
[5] = tested on: PC-3 prostate
[6] = tested on: RPMI-8226 leukemia
[7] = tested on: SF-268 CNS
[8] = tested on: SK-MEL-28 melanoma
[9] = tested on: SK-OV-3 ovarian
[10] = tested on: SN12C renal

Molecule Cc1ccc(Nc2cc(C)nc(NCCCNc3ccnc4cc(Cl)ccc34)n2)cc1 has a GI50 [1] of 1.09 µM, a TGI [1] of 2.81 µM and a GI50 [2] of 1.38 µM. The TGI [2] was 2.78 µM, the GI50 [3] was 1.82 µM and the TGI [3] was 3.98 µM. The GI50 [4] was 2.14 µM, the TGI [4] was 5.91 µM and the GI50 [5] was 1.57 µM. For the same molecule, the TGI [5] was 3.79 µM, the GI50 [6] was 1.5 µM and the TGI [6] was 3.95 µM. It also gave a GI50 [7] of 1.52 µM, a TGI [7] of 3.14 µM and a GI50 [8] of 1.62 µM. It also gave a TGI [8] of 3.06 µM, a GI50 [9] of 1.57 µM and a TGI [9] of 3.35 µM. It also gave a GI50 [10] of 1.49 µM and a TGI [10] of 3.11 µM.

O=C(CCSc1ccnc2c(C(F)(F)F)cccc12)N/N=C/c1cc(Cl)c(Cl)cc1Cl gave a GI50 [1] of 18.5 µM, a TGI [1] of 32.5 µM and a GI50 [2] of 19.8 µM. The TGI [2] was 35.8 µM, the GI50 [3] was 18.8 µM and the TGI [3] was 40.7 µM. For the same molecule, the GI50 [4] was 17.6 µM, the TGI [4] was 39.3 µM and the GI50 [5] was 18 µM. It also gave a TGI [5] of 36.7 µM, a GI50 [6] of 19 µM and a TGI [6] of 52.7 µM. For the same molecule, the GI50 [7] was 23.2 µM, the TGI [7] was 50.3 µM and the GI50 [8] was 17 µM. It also gave a TGI [8] of 32.5 µM, a GI50 [9] of 23.7 µM and a TGI [9] of 54.7 µM. For the same molecule, the GI50 [10] was 18 µM and the TGI [10] was 34.1 µM.

With Nc1nccc2c1ncn2C1OC(CO)C(O)C1O (stereo not given) the GI50 [1] was 39.2 µM, the TGI [1] was greater than 100 µM and the GI50 [2] was greater than 100 µM. The TGI [2] was greater than 100 µM, the GI50 [3] was 44.7 µM and the TGI [3] was greater than 100 µM. For the same molecule, the GI50 [4] was greater than 100 µM, the TGI [4] was greater than 100 µM and the GI50 [5] was greater than 100 µM. The TGI [5] was greater than 100 µM, the GI50 [6] was greater than 100 µM and the TGI [6] was greater than 100 µM. The GI50 [7] was 83.4 µM, the TGI [7] was greater than 100 µM and the GI50 [8] was greater than 100 µM. It also gave a TGI [8] greater than 100 µM, a GI50 [9] greater than 100 µM and a TGI [9] greater than 100 µM. It also gave a GI50 [10] of 89.3 µM and a TGI [10] greater than 100 µM.

In the case of Cc1cc(N(CCCNc2ccnc3cc(Cl)ccc23)Cc2ccc3c(c2)OCO3)nc(N2CCCCC2)n1, the GI50 [1] is reported as 1.35 µM, the TGI [1] is reported as 3.28 µM and the GI50 [2] is reported as 1.74 µM. For the same molecule, the TGI [2] was 5.17 µM, the GI50 [3] was 1.58 µM and the TGI [3] was 3.87 µM. It also gave a GI50 [4] of 4.03 µM, a TGI [4] of 20.5 µM and a GI50 [5] of 2.1 µM. The TGI [5] was 5.38 µM, the GI50 [6] was 1.91 µM and the TGI [6] was 4.93 µM. For the same molecule, the GI50 [7] was 2.33 µM, the TGI [7] was 6.21 µM and the GI50 [8] was 1.94 µM. The TGI [8] was 3.66 µM, the GI50 [9] was 2.74 µM and the TGI [9] was 8.46 µM. The GI50 [10] was 2.87 µM and the TGI [10] was 12 µM.

With CN1C[C@@H]2Cn3c(c(C4=C(c5cn(C)c6ccccc56)C(=O)NC4=O)c4ccccc43)C[C@H]2C1 the GI50 [1] was 4.2 µM and 3.02 µM, the TGI [1] was 9.66 µM and 8.22 µM and the GI50 [2] was 4.29 µM and 4.01 µM. For the same molecule, the TGI [2] was 9.32 µM and 8.42 µM, the GI50 [3] was 5.73 µM and 6.57 µM and the TGI [3] was 11 µM and 15 µM. The GI50 [4] was 4.53 µM and 4.06 µM, the TGI [4] was 15 µM and 10.9 µM and the GI50 [5] was 3.91 µM and 2.81 µM. The TGI [5] was 11 µM and 7.08 µM, the GI50 [6] was 5.56 µM and 4.7 µM and the TGI [6] was 11.9 µM and 10.3 µM. For the same molecule, the GI50 [7] was 4.8 µM and 4.93 µM, the TGI [7] was 9.46 µM and 9.97 µM and the GI50 [8] was 4.34 µM and 4.35 µM. The TGI [8] was 8.62 µM and 8.47 µM, the GI50 [9] was 4.56 µM and 4.06 µM and the TGI [9] was 11.8 µM and 11.9 µM. For the same molecule, the GI50 [10] was 3.45 µM and 3.3 µM and the TGI [10] was 8.8 µM and 8.65 µM.

Molecule CCC1(NC(=O)c2cc(F)c(F)c(F)c2F)C(=O)NC(=O)N(C(C)C)C1=O (stereo not given) has a GI50 [1] of 22.5 µM, a TGI [1] of 51.5 µM and a GI50 [2] of 58 µM. The TGI [2] was greater than 100 µM, the GI50 [3] was 10.4 µM and the TGI [3] was 28.7 µM. For the same molecule, the GI50 [4] was 19.1 µM, the TGI [4] was 46.4 µM and the GI50 [5] was 21.6 µM. It also gave a TGI [5] of 63.6 µM, a GI50 [6] greater than 100 µM and a TGI [6] greater than 100 µM. It also gave a GI50 [7] of 19.1 µM, a TGI [7] of 37 µM and a GI50 [8] of 14.5 µM. The TGI [8] was 45 µM, the GI50 [9] was 23.2 µM and the TGI [9] was 51.1 µM. It also gave a GI50 [10] of 26.4 µM and a TGI [10] greater than 100 µM.
